This is an account of results in ChEMBL document CHEMBL3638618, “Uracil compound or salt thereof having human deoxyuridine triphosphatase inhibitory activity” (2013).

This test deals with T1, Deoxyuridine 5'-triphosphate nucleotidohydrolase, mitochondrial (Homo sapiens, UniProt P33316).
T1 sequence (P33316 whole entry): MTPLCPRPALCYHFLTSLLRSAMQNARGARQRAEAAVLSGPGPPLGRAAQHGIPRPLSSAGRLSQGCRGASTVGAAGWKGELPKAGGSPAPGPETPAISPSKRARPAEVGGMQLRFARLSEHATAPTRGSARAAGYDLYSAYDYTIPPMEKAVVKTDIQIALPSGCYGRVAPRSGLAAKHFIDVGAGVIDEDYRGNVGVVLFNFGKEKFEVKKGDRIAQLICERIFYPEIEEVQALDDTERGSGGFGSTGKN
The test is described as follows: Inhibition Assay: The inhibitory activity of the compound against human dUTPase was determined by measuring the production of [5-3H]deoxyuridine monophosphate from [5-3H]deoxyuridine triphosphate.

pIC50: −log10 of the molar value.

As a reminder, the pIC50 is the IC50 on a negative log10 scale, so that one unit is a factor of ten. The low end stands for a large IC50, the high end for a small IC50.

On to `C[C@@H](NS(=O)(=O)CCCOCn1ccc(=O)[nH]c1=O)c1cccc(OCCF)c1`, for which the pIC50 is 6.39.
